Reference: the supplement of paper PMC10307832

compound: Cc1ccc(NC(=O)c2ccc(CN3CCN(C)CC3)cc2)cc1Nc1nc(-c2cccnc2)cs1 [Masitinib] + COc1cc2c(Oc3ccc(NC(=O)C4(C(=O)Nc5ccc(F)cc5)CC4)cc3F)ccnc2cc1OCCCN1CCOCC1 [Foretinib] (partner 0.25 µM); assay: relative viability (nuclei count vs DMSO), 5 days (fraction); higher = more cells survive; conditions: first compound 1 µM
Method in brief: (§1)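 The day after seeding in 1536-well plates, lung cancer cell lines were treated by pin tool with a single drug, or with a fixed anchor-drug dose together with five library-drug doses (not always all listed) in √10 steps. After 5 days, a combined fix-and-stain solution (final 0.05% Triton X-100, 1% formaldehyde, 1 ug/ml Hoechst) was added. Nuclei counted on 4× images gave relative viability as treated counts over vehicle counts, reported as the median of duplicate plates.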

First: ABC-1
Second: NCI-H661
The relative viability of the first is higher: 1 for the first, 0.965 for the second.

compound: Cc1ccc(NC(=O)c2ccc(CN3CCN(C)CC3)cc2)cc1Nc1nc(-c2cccnc2)cs1 [Masitinib] + Nc1nc2[nH]cc(CCc3ccc(C(=O)N[C@@H](CCC(=O)O)C(=O)O)cc3)c2c(=O)[nH]1 [Pemetrexed] (partner 0.2 µM); assay: as above; conditions: first compound 0.01 µM
Method in brief: as §1

Going from NCI-H522 to NCI-H838, the relative viability falls from 1.13 to 0.267.

Compared with NCI-H1651, NCI-H1734 is lower in relative viability: 0.565 for the first, 0.408 for the second.

First: NCI-H2009
Second: LU99A
The relative viability of the first is higher: 1 for the first, 0.158 for the second.

Going from PC-14 to NCI-H596, the relative viability rises from 0.137 to 0.553.

Going from NCI-H2228 to EMC-BAC-2, the relative viability rises from 0.342 to 0.435.

Going from NCI-H2087 to NCI-H647, the relative viability falls from 0.642 to 0.166.

Compared with LK-2, NCI-H2126 is higher in relative viability: 0.291 for the first, 0.633 for the second.

First: NCI-H2342
Second: NCI-H1793
The relative viability of the first is lower: 0.741 for the first, 0.992 for the second.

First: NCI-H358
Second: HCC-44
The relative viability of the first is lower: 0.16 for the first, 0.494 for the second.

First: SW 900
Second: NCI-H1648
The relative viability of the first is lower: 0.462 for the first, 0.635 for the second.

Compared with NCI-H650, NCI-H1563 is lower in relative viability: 0.857 for the first, 0.714 for the second.

First: NCI-H1792
Second: NCI-H661
The relative viability of the first is lower: 0.846 for the first, 0.9 for the second.

same assay, conditions: first compound 0.03162 µM

Going from NCI-H522 to NCI-H838, the relative viability falls from 0.935 to 0.256.

Compared with NCI-H1651, NCI-H1734 is lower in relative viability: 0.62 for the first, 0.465 for the second.

Compared with NCI-H2009, LU99A is lower in relative viability: 1.01 for the first, 0.21 for the second.

Going from PC-14 to LCLC-103H, the relative viability rises from 0.144 to 0.465.

Compared with NCI-H596, NCI-H2228 is lower in relative viability: 0.536 for the first, 0.372 for the second.

Going from EMC-BAC-2 to NCI-H2087, the relative viability rises from 0.453 to 0.666.

Going from HCC-366 to NCI-H647, the relative viability rises from 0.174 to 0.178.

Compared with LK-2, NCI-H2126 is higher in relative viability: 0.34 for the first, 0.713 for the second.

Going from NCI-H2342 to NCI-H1793, the relative viability rises from 0.72 to 0.737.

Going from NCI-H358 to HCC-44, the relative viability rises from 0.169 to 0.657.

First: SW 900
Second: NCI-H1648
The relative viability of the first is lower: 0.47 for the first, 0.891 for the second.

Going from NCI-H650 to NCI-H1563, the relative viability falls from 0.832 to 0.741.

Compared with NCI-H1792, NCI-H661 is higher in relative viability: 0.525 for the first, 0.913 for the second.

same assay, conditions: first compound 0.1 µM

Compared with NCI-H522, NCI-H838 is lower in relative viability: 0.95 for the first, 0.254 for the second.

Going from NCI-H1651 to NCI-H1734, the relative viability falls from 0.527 to 0.396.

First: NCI-H2009
Second: LU99A
The relative viability of the first is higher: 1.1 for the first, 0.16 for the second.

Compared with PC-14, LCLC-103H is higher in relative viability: 0.13 for the first, 0.416 for the second.

First: NCI-H596
Second: NCI-H2228
The relative viability of the first is higher: 0.501 for the first, 0.347 for the second.

Compared with EMC-BAC-2, NCI-H2087 is higher in relative viability: 0.447 for the first, 0.66 for the second.

First: HCC-366
Second: NCI-H647
The relative viability of the first is lower: 0.148 for the first, 0.174 for the second.

First: LK-2
Second: NCI-H2126
The relative viability of the first is lower: 0.31 for the first, 0.672 for the second.

First: NCI-H2342
Second: NCI-H1793
The relative viability of the first is lower: 0.831 for the first, 1 for the second.

Going from NCI-H358 to HCC-44, the relative viability rises from 0.167 to 0.49.

Compared with SW 900, NCI-H1648 is higher in relative viability: 0.451 for the first, 0.75 for the second.

First: NCI-H650
Second: NCI-H1563
The relative viability of the first is higher: 1.04 for the first, 0.835 for the second.

Compared with NCI-H1792, NCI-H661 is higher in relative viability: 0.93 for the first, 0.946 for the second.

same assay, conditions: first compound 0.3162 µM

First: NCI-H522
Second: NCI-H838
The relative viability of the first is higher: 0.841 for the first, 0.247 for the second.

Compared with NCI-H1651, NCI-H1734 is lower in relative viability: 0.632 for the first, 0.376 for the second.

First: NCI-H2009
Second: LU99A
The relative viability of the first is higher: 1.09 for the first, 0.181 for the second.

Going from PC-14 to LCLC-103H, the relative viability rises from 0.12 to 0.469.

Compared with NCI-H596, NCI-H2228 is lower in relative viability: 0.463 for the first, 0.347 for the second.

Compared with EMC-BAC-2, NCI-H2087 is higher in relative viability: 0.429 for the first, 0.555 for the second.

Compared with HCC-366, NCI-H647 is higher in relative viability: 0.137 for the first, 0.185 for the second.

Going from LK-2 to NCI-H2126, the relative viability rises from 0.281 to 0.665.

Compared with NCI-H2342, NCI-H1793 is higher in relative viability: 0.746 for the first, 0.835 for the second.

Going from NCI-H358 to HCC-44, the relative viability rises from 0.163 to 0.617.

Going from SW 900 to NCI-H650, the relative viability rises from 0.478 to 1.01.

Going from NCI-H1563 to NCI-H1792, the relative viability falls from 0.729 to 0.548.

NCI-H661 gave a relative viability of 0.939.

same assay, conditions: first compound 1 µM

Compared with NCI-H522, NCI-H838 is lower in relative viability: 0.997 for the first, 0.244 for the second.

Going from NCI-H1651 to NCI-H1734, the relative viability falls from 0.588 to 0.404.

Compared with NCI-H2009, LU99A is lower in relative viability: 1.01 for the first, 0.219 for the second.

Going from PC-14 to LCLC-103H, the relative viability rises from 0.141 to 0.424.

Going from NCI-H596 to NCI-H2228, the relative viability falls from 0.472 to 0.363.

First: EMC-BAC-2
Second: NCI-H2087
The relative viability of the first is lower: 0.328 for the first, 0.703 for the second.

Going from HCC-366 to NCI-H647, the relative viability rises from 0.146 to 0.164.

Compared with LK-2, NCI-H2126 is higher in relative viability: 0.217 for the first, 0.738 for the second.

First: NCI-H2342
Second: NCI-H1793
The relative viability of the first is higher: 0.781 for the first, 0.742 for the second.

First: NCI-H358
Second: HCC-44
The relative viability of the first is lower: 0.178 for the first, 0.578 for the second.

Compared with SW 900, NCI-H1648 is higher in relative viability: 0.452 for the first, 0.7 for the second.

Compared with NCI-H650, NCI-H1563 is lower in relative viability: 0.99 for the first, 0.701 for the second.

Compared with NCI-H1792, NCI-H661 is higher in relative viability: 0.707 for the first, 0.895 for the second.
